Laboratory results published in patent publication US20110028554A1, “PHARMACEUTICAL COMPOSITIONS COMPRISING DIIODOTHYRONINE AND THEIR THERAPEUTIC USE” (UNIVERSITE JOSEPH FOURIER, priority 2007, published 2011).
Entries after “also recorded” stand apart in the source; their conditions may differ.

Assays:
[1] = Growth rate (body weight) of Wistar rats with subcutaneous continuous-release pellet; assay type: in vivo
Experimental: (§1) Adult male rat bred in the animal room facilities of Laboratory of Fundamental and Applied. Bioenergetics (Wistar strain) or purchased from Charles-River Laboratories, Domaine des oncins, L'ARBRESLE France [(genetically obese normoglycemic (Zucker or Fa/Fa) or diabetic (ZDF)] were caged individually in stainless steel hanging cages and maintained in a 22° C., 50±10% relative humidity and 12 h:12 h light:dark environment. All animals were fed ad libitum with a standard rat chow (Safe A04, Villemoisson, France) and tap water. Body mass and food intake were recorded twice/thrice a week and fresh food was provided, at the same time to ensure minimal disturbance to the animals' food, behavior.
(§2) Eight-week old rats (300 g±10 g) were anesthetized by simultaneous intraperitoneal injection of diazepam 4 mg/kg and ketamine 100 mg/kg. In order to maintain body temperature during the surgery (10 min), animals were placed on a warm blanket. After interscapular shaving, a small incision of 0.5 cm of the skin allows the subcutaneous implantation of a small pellet (containing rT3 or 3′,3-T2) with a 10-gauge precision trochar. The pellets, manufactured by Innovative Research of America (Sarasota, Fla., USA) are constituted of a biodegradable matrix that effectively and continuously release the active product in the animal.
3-5 diiodothyronine (3-5 T2) or 3-3′diiodothyronine (3-3′ T2) were used at different doses (5, 0.5, or 0.1 mg/pellet) were implanted in order to provide a continuous and constant drug delivery over 60 days (which represents 25 μg, 2.5 μg or 0.5 μg/day/100 g BW).

[2] = Body weight and food intake of Zucker rats; assay type: in vivo; settings: Zucker (Fa/Fa) rats, 30 days, FIG. 8 legend high dosage 25 μg/100 g BW
Experimental: as §1
as §2, with “animal. […]” for “animal.”

[3] = Body composition of genetically obese Zucker rats; assay type: in vivo, Zucker (Fa/Fa) rats; settings: FIG. 9, high dosage 25 μg/100 g BW
Description: (§3) At the end of the experimental period, animals were sacrificed by decapitation, in order to avoid the well-known effects of general anesthetics on mitochondrial metabolism. Blood, samples were immediately collected and plasma was frozen for subsequent determination of serum metabolites and hormones. Liver, muscles and fat depots were quickly excised and weighed. Liver median lobe was rapidly freeze-clamped. Muscles (plantaris, soleus and gastrocnemius) were frozen in isopentane precooled in liquid nitrogen. Mesenteric fat consisted, of adipose tissue surrounding the gastro-intestinal tract from the gastro-oesophageal sphincter to the end of the rectum with special care taken in distinguishing and removing the pancreas. Retroperitoneal fat pad was taken as the distinct depot behind each kidney along the lumbar muscles. Epididymal fat consisted, of adipose tissue on top of the epididymis. For subcutaneous depot measurement, a rectangular piece of skin was taken on the right side of each animal from the median line of the abdomen between the spine and the right hip to the first rib. Interscapular brown adipose tissue was removed and dissected free from adjacent muscles and white adipose tissue. The heart ventricles, the right kidney and the spleen were also excised, weighed and frozen.

[4] = Blood parameters (glucose, HbA1c, insulin, cholesterol, triglycerides) in ZDF rats; assay type: in vivo, Zucker Diabetic fatty (ZDF) rats; settings: high dosage 25 μg/100 g BW
Experimental: (§4) Rats were genetically obese normoglycemic (Zucker or Fa/Fa), 10-11 week-old diabetic rats (ZDF) or genetic non-overweight diabetic (type 2 diabetes) rats (Goto-Kakizaki (GK) model).
(§5) The day of the study, after a fasted period overnight (18 h), blood samplings will be taken in awake rats from the tail vein.
The following biochemical parameters were analyzed: glycemia, insulinemia, HbA1c, TG and Cholesterol.
Insulin levels were determined with commercial kits (Linco Research).
(§6) Glucose and 3-hydroxybutyrate (3-HB) were measured, enzymatically and non esterified fatty acid (NEFA) by colorimetric assay (Wako Chemicals).
(§7) Triglycerides and cholesterol were measured by classical routine automate apparatus.

liver mitochondria = experiment: Liver mitochondrial oxygen consumption (JO2) of treated Wistar rats; assay type: in vivo; settings: for Liver mitochondrial respiratory rate, phosphorylating condition (state 3), vs placebo: all substrates
Experimental: All measurements were performed using mitochondria (1.0 mg mitochondrial protein/ml) incubated with various substrates: • GM: glutamate/malate (5 mM/2.5 mM) • SR: succinate/rotenone (5 mM/5 μM), • GMS: glutamate/malate/succinate (5 mM/2.5 mM/5 mM), • Palm: palmitoyl carnitine (55 μM), • Octa: octanoyl carnitine (100 μM), • TMPD/AsC: TMPD/ascorbate (0.5 mM/0.5 mM), and • TMPD/AsC/DNP: TMPD/ascorbate/DNP (0.5 mM/0.5 mM/75 μM).
JO2 was recorded in the presence of the substrate and following the addition of 1 mM ADP (adenosine diphosphate) (state 3).
The oligomycin was added to the mitochondrial suspension to determine the non-phosphorylating respiratory-rate (state 4).
The major part of the liver and the red part of each quadriceps were rinsed, and chopped into isolation medium (250 mM sucrose, 20 mM Tris-HCl and 1 mM EGTA-Tris, pH 7.4). Nuclei and cell debris were removed, by centrifugation at 800 g for 10 min. Mitochondria were then isolated from the supernatant by spinning twice at 8,000 g for 10 minutes. The mitochondrial pellet was resuspended in 0.5 ml of isolation buffer and kept on ice. Mitochondrial protein was measured by the bicinchoninic acid method (Pierce, Rockford, Ill.). The final mitochondrial suspensions were maintained on ice and were used for measurements of oxygen consumption rate and reactive oxygen species (ROS) production.
The rate of mitochondrial oxygen consumption (JO2) was measured at 30° C. in an incubation chamber with a Clark-type O2 electrode filled with 2 ml of incubation medium (125 mM KCl, 10 mM Pi-Tris, 20 mM Tris-HCl, 0.1 mM EGTA, pH 7.2). All measurements were performed using mitochondria (1.0 or 0.2 mg mitochondrial protein/ml for liver and skeletal muscle) incubated either with various substrates: glutamate/malate (5 mM/2.5 mM) and succinate (5 mM), alone or in combination, palmitoyl carnitine (55 μM) and octanoyl carnitine (100 μM). For each substrate, JO2 was recorded in the presence of the substrate alone (State 2) and following the addition of 1 mM ADP (state 3). Oligomycin (1.25 μg/mg protein) was added to the mitochondrial suspension to determine the non-phosphorylating respiratory rate (state 4). The incubation medium was constantly stirred with a built-in electromagnetic stirrer and bar flea. The efficiency of the mitochondrial oxidative phosphorylation was assessed by the state 3/state 4 ratio which measures the degree of control imposed on oxidation by phosphorylation (respiratory control ratio, RCR).

[5] = Plasmatic concentrations of glucose, triglycerides, cholesterol, FFA and HDL on the day of sacrifice; assay type: in vivo, Wistar, Zucker and ZDF rats
Description: These measurements were done on venous blood of the rats the day of the sacrifice.
as §3, §6, §7

[6] = Blood glucose in Goto-Kakizaki (GK) rats; assay type: in vivo; settings: low dosage 2.5 μg/100 g BW, 10 days, n=5, p<0.01
Experimental: as §4, §5, §6

N[C@@H](Cc1cc(I)c(Oc2ccc(O)cc2)c(I)c1)C(=O)O [3,5-T2, 3,5-diiodothyronine]
Growth rate (body weight gain) vs placebo ([1]; high dosage 25 μg/100 g BW): did not show similar weight gain; also recorded: a biphasic curve was observed with a weight gain between the 10th and the 15th day
Growth rate (body weight gain) vs placebo ([1]; low dosage 2.5 μg/100 g BW): the body mass did not change
Food intake vs placebo [2]: significantly lower as compared to placebo
Animal growth (body weight) vs placebo ([2]; text says low 3,5-T2 group): no significant growth
Absolute values of fat deposit, all localizations, vs placebo [3]: significantly lower
Brown adipose tissue vs placebo [3]: significantly increased
Muscle mass vs placebo [3]: not affected
Plasmatic cholesterol at the end of the treatment vs placebo [4]: significantly lower
Plasmatic triglycerides at the end of the treatment vs placebo [4]: not different between the two groups
Glycated hemoglobin (HbA1c) ([4]; 4 weeks): significant decrease
Plasmatic insulin concentration ([4]; 4 weeks): maintenance of insulin concentration at a high level; also recorded: increasing plasmatic insulin concentration
Plasmatic glucose concentration ([4]; from week 1 over 4 weeks): dramatic decrease; also recorded: decreasing glucose concentration
Liver mitochondrial respiratory rate, non-phosphorylating (state 4, oligomycin), vs placebo (liver mitochondria; high dosage 25 μg/100 g BW): substantially higher in the low 3,5-T2 group only
Liver mitochondrial respiratory rate, phosphorylating condition (state 3), vs placebo (liver mitochondria; high dosage 25 μg/100 g BW): very significant increased respiratory rate
Liver mitochondrial respiratory rate, non-phosphorylating (state 4, oligomycin), vs placebo (liver mitochondria; low dosage 2.5 μg/100 g BW): substantially higher
Liver mitochondrial respiratory rate, phosphorylating condition (state 3), vs placebo (liver mitochondria; low dosage 2.5 μg/100 g BW): very significant increased respiratory rate
Plasmatic glucose at the end of the treatment ([5]; non-diabetic Wistar rats, low dosage 2.5 μg/100 g BW): minor changes
Plasmatic glucose at the end of the treatment ([5]; non-diabetic Zucker rats, 25 μg/100 g BW): minor changes
Change in blood glucose concentration as compared to control animals [6]: −24±6%
